Source: paper PMC7904875, “Identification and Functional Analysis of SlitOBP11 From Spodoptera litura” (Frontiers in Physiology, 2021)
Where two headings read alike, the source gives them in different places.

Key:
Type in all cases: binding
[1] = molecular target: T1, SlitOBP11 (Spodoptera litura, UniProt A0A9J7E9A4); assay: competitive displacement of 1-NPN fluorescence
T1 construct: gene LOC111356549; mature protein, predicted 23-residue signal peptide removed; ORF 465 bp, given as 155 aa; pET32a(+) (BamHI/HindIII), E. coli BL21(DE3); Ni-NTA purified, tag cleaved with enterokinase
T1 sequence (A0A9J7E9A4 24-154): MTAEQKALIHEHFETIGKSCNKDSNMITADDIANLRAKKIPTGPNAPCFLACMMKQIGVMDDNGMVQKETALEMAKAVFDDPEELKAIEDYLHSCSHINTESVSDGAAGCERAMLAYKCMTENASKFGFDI

[2] = molecular target: T1, SlitOBP11; assay: competitive displacement of 1-NPN fluorescence; settings: for Ki: read-out: Ki (μmol L^-1)^∗
Description: competitive displacement of 1-NPN fluorescence on SlitOBP11

[3] = molecular target: T1, SlitOBP11; assay: fluorescence titration, Scatchard; settings: read-out: dissociation constant

Molecule	IC50 [1]	further results
CC(=O)CC/C=C(\C)CCC=C(C)C [Geranylacetone]	> 50 µM	
C/C=C/C(=O)O [Crotonic acid]		IC50 ([1]; read-out: IC50 (μmol L^-1), 2 μM protein, 2 μM 1-NPN, 30 mM Tris-HCl pH 7.4, 4°C): > 50 µM
CC(C)C(=O)O [Isobutyric acid]	> 50 µM	
CCCCCCCC=O [Octyl aldehyde]	> 50 µM	
OCc1ccccc1 [Benzyl alcohol]	> 50 µM	
CCCC/C=C\CCCCCCCCOC(C)=O [(Z)-9-tetradecenyl acetate, (Z)-9-Tetradecenyl acetate]	11.2 ± 0.55 µM	Ki [2]: 9.97 ± 0.492 µM
CC(=O)OCc1ccccc1 [Benzyl acetate]	> 50 µM	
CCCCCCCCCC=O [Decanal]	> 50 µM	
CC1=CCCC(C)(C)C1/C=C/C(C)O (stereo not drawn) [Alpha- ionol]	> 50 µM	
CCCCCC(=O)O [Hexanoic acid]	> 50 µM	
CCCCCCCCCCCCCC [Tetradecane]	> 50 µM	
Farnesene		IC50 ([1]; 2 μM protein, 2 μM 1-NPN, 30 mM Tris-HCl pH 7.4, 4°C, read-out: IC50): > 50 µM
CC/C=C/CCCCCCCCCCOC(C)=O [(E)-11-tetradecenly acetate, (E)-11-Tetradecenyl acetate]		IC50 ([1]; read-out: IC50): 15.2 ± 0.54 µM; Ki [2]: 13.5 ± 0.479 µM
CC12CCC(CC1)C(C)(C)O2 [Eucalyptol]	> 50 µM	
O=CCc1ccccc1 [Phenylacetaldehyde]		IC50 [2]: 43.4 ± 10.1 µM; Ki [2]: 35.8 ± 9.76 µM
C=CC(=C)CCC=C(C)C [Myrcene]	> 50 µM	
CCCCCCCCCCCC [Dodecane]	> 50 µM	
COC(=O)c1ccccc1N [Methyl anthranilate]		IC50 ([1]; read-out: IC50): > 50 µM
CCCCC(C)=O [2-hexanone]	> 50 µM	
CCCC(=O)CC [3-hexanone]	> 50 µM	
C=C1CC/C=C(\C)CC[C@@H]2[C@@H]1CC2(C)C [Beta-caryophyllene]	> 50 µM	
O=Cc1ccccc1 [Benzaldehyde]	> 50 µM	
CC1=CCC(C(C)C)C=C1 (stereo not drawn) [Alpha-phellandrene]	> 50 µM	
CCC(C)CC(=O)O (stereo not drawn) [3-methylpentanoic acid]	> 50 µM	

Molecule	IC50 [1]	further results
CC(=O)/C=C/C1=C(C)CCCC1(C)C [Beta-ionone]	> 50 µM	
CC(C)CCC(=O)O [4-methylpentanoic acid]	> 50 µM	
CCCC(=O)O [Butyric acid]	> 50 µM	
CCc1ccccc1 [Ethylbenzene]	> 50 µM	
CC/C=C/C=C\CCCCCCCCOC(C)=O [(Z, E)-9,11-tetradecadienyl acetate, (Z,E)-9,11-Tetradecadienyl acetate]	15.6 ± 1.41 µM	Ki [2]: 13.9 ± 1.44 µM
C=C(C)[C@H]1CC=C(C)CC1 [(R)-(+)-limonene]	> 50 µM	
CC(=O)O [Acetic acid]	> 50 µM	
CC(=O)OC/C=C(\C)CCC=C(C)C [Geranyl acetate]	> 50 µM	
C/C=C/C/C=C\CCCCCCCCOC(C)=O [(Z, E)-9,12-tetradecadienyl acetate, (Z,E)-9,12-Tetradecadienyl acetate]	16.2 ± 0.32 µM	Ki [2]: 14.4 ± 0.317 µM
CC(C)CC(=O)O [3-methylbutyric acid]	> 50 µM	
CCCCC(=O)O [Pentanoic acid]	> 50 µM	
CCCCCCCCCCCCCCCCCC [N-octadecane]	> 50 µM	
c1ccc2[nH]ccc2c1 [Indole]	> 50 µM	
OCCc1ccccc1 [Phenethyl alcohol]	> 50 µM	
COC(=O)c1ccccc1O [Methyl salicylate]	> 50 µM	
CCCCCCCCCCCCC [Tridecane]	> 50 µM	
c1ccc(Nc2cccc3ccccc23)cc1 [1-NPN, 1-N-Phenyl-naphthylamine]		Kd [3]: 8.09 ± 0.26 µM
CCCCCCC(=O)O [Heptanoic acid]	> 50 µM	
CCC(=O)O [Propanoic acid]	> 50 µM	
CC(=O)OCCc1ccccc1 [Phenethyl acetate]	48.6 ± 0.52 µM	Ki [2]: 43.1 ± 0.488 µM
C=CC(C)(O)CCC=C(C)C (racemic) [(±)-Linalool]		IC50 ([1]; read-out: IC50): > 50 µM
C=C(C)[C@H]1CC=C(C)C(=O)C1 [(+)-Carvone]	> 50 µM	
CC/C=C\CCOC(C)=O [Cis-3-hexenyl acetate]	> 50 µM	
C=CC(C)(O)CC/C=C(\C)CCC=C(C)C (stereo not drawn) [Trans-nerolidol]	> 50 µM	
